Read-outs that look alike come from different tables or passages of the source.
Test system: HSV type1 H29 Strain
Assay: Yield reduction assay with HSV type 1 H29 strain
Assay type: cell-based, herpes simplex virus type 1
Settings: read-out: ED50 (the source's name)
From the text: (1) Examples of Mutual Enhancement of the Antiherpetic Activities of 2-Acetylpyridine-4-(2-morpholinoethyl)thiosemicarbazone (compound A) and Acyclovir (ACV).
^a Yield reduction assay with HSV type1 H29 Strain

| EC50 (ACV with addition of 1 μM Compound A) [nM] | EC50 (Addition: none) [nM] | EC50 (Compound A with addition of 0.2 μM ACV) [nM] | Structure (SMILES) |
| --- | --- | --- | --- |
| 20 | 600 | – | Nc1nc2c(ncn2COCCO)c(=O)[nH]1 [ACV, 9-(2-hydroxyethoxymethyl)guanine] |
| – | 5000 | 700 | CC(=NNC(=S)NCCN1CCOCC1)c1ccccn1 [Compound A, 2-Acetylpyridine-4-(2-morpholinoethyl)thiosemicarbazone] |

— patent US4758572A, “Antiviral combinations” (Burroughs Wellcome Co., priority 1983, dated 1988)
